ChEMBL document CHEMBL4433248, “SAR studies in the sulfonyl carboxamide class of HBV capsid assembly modulators” (Bioorg Med Chem Lett, 2019)

Tests used:
[1] = Half life in human hepatocytes; assay type: ADME, cell-based, Hepatocyte
[2] = Cytotoxicity against human HepG2.2.15 cells assessed as reduction in cell viability incubated for 3 days followed by replacement of fresh medium containing compound and measured after 3 days by cell titer glo-based luminescence assay; set-up: species or system HepG2 2.2.15
[3] = Solubility of the compound in DMSO; assay type: physicochemical
[4] = Half life in human at 200 mg; assay type: ADME
Hepatitis B virus [5] = assay: Antiviral activity against Hepatitis B virus infected in naive HBeAg positive patients assessed as log10 reduction in HBV DNA at 600 mg bid; assay type: functional
[6] = Ratio of drug concentration in liver to plasma of CD1 mouse; assay type: ADME
[7] = Lipophilicity, log P of the compound; assay type: physicochemical; conditions: octanol/water
[8] = AUC in CD1 mouse liver at 5 mg/kg; assay type: ADME, organism-based; conditions: in vivo
[9] = AUC in CD1 mouse plasma at 5 mg/kg; assay type: ADME, organism-based; conditions: in vivo
[10] = Half life in CD1 mouse hepatocytes; assay type: ADME, cell-based, Hepatocyte
[11] = Oral bioavailability in Mongrel dog at 3 mg/kg; assay type: ADME, organism-based, Canis lupus familiaris; conditions: in vivo
[12] = Half life in Sprague-Dawley rat hepatocytes; assay type: ADME, cell-based, Hepatocyte
[13] = Half life in CD1 mouse at 10 mg/kg, po or 2 mg/kg, iv; assay type: ADME, organism-based; conditions: in vivo
[14] = Volume of distribution at steady state in CD1 mouse at 10 mg/kg, po or 2 mg/kg, iv; assay type: ADME, organism-based; conditions: in vivo, read-out: Vdss
[15] = Half life in Mongrel dog hepatocytes; assay type: ADME, cell-based, Canis lupus familiaris, Hepatocyte
[16] = Clearance in Mongrel dog at 3 mg/kg, po or 1 mg/kg, iv; assay type: ADME, organism-based, Canis lupus familiaris; conditions: in vivo
[17] = Half life in Mongrel dog at 3 mg/kg, po or 1 mg/kg, iv; assay type: ADME, organism-based, Canis lupus familiaris; conditions: in vivo
[18] = Volume of distribution at steady state in Mongrel dog at 3 mg/kg, po or 1 mg/kg, iv; assay type: ADME, organism-based, Canis lupus familiaris; conditions: in vivo, read-out: Vdss
[19] = Oral bioavailability in CD1 mouse at 10 mg/kg; assay type: ADME, organism-based; conditions: in vivo
[20] = Clearance in CD1 mouse at 10 mg/kg, po or 2 mg/kg, iv; assay type: ADME, organism-based; conditions: in vivo
[21] = Clearance in Sprague-Dawley rat at 10 mg/kg, po or 2 mg/kg, iv; assay type: ADME, organism-based; conditions: in vivo
[22] = Stability in human hepatocytes; assay type: ADME, cell-based, Hepatocyte
Hepatitis B virus [23] = assay: Ratio of EC50 for antiviral activity against Hepatitis B virus infected in human HepG2.2.15 cells in presence of 40% normal human serum to EC50 for antiviral activity against Hepatitis B virus infected in human HepG2.2.15 cells in absence of 40% normal human serum; assay type: functional
[24] = Half life in Sprague-Dawley rat at 10 mg/kg, po or 2 mg/kg, iv; assay type: ADME, organism-based; conditions: in vivo
[25] = Volume of distribution at steady state in Sprague-Dawley rat at 10 mg/kg, po or 2 mg/kg, iv; assay type: ADME, organism-based; conditions: in vivo, read-out: Vdss

Compound: CC1(O)COCCN(S(=O)(=O)c2cc(C(=O)Nc3ccc(F)c(Cl)c3)ccc2F)C1 (stereo not drawn)
- half-life [1]: 1.28 h
- CC50 at 72 h [2]: 7.1 to 15 µM

Compound: CC1(O)CCCCN(S(=O)(=O)c2cc(C(=O)Nc3ccc(F)c(Cl)c3)ccc2F)C1 (stereo not drawn)
- CC50 at 72 h [2]: 10 µM

Compound: O=C(Nc1ccc(F)c(Cl)c1)c1ccc(F)c(S(=O)(=O)N2CCCCC(O)CC2)c1 (stereo not drawn)
- half-life [1]: 0.0833 h
- CC50 at 72 h [2]: 24 µM

Compound: CN1CCCN(S(=O)(=O)c2cc(C(=O)Nc3ccc(F)c(Cl)c3)ccc2F)CC1=O
- solubility [3]: Insoluble
- CC50 at 72 h [2]: > 100 µM

Compound: O=C(Nc1ccc(F)c(Cl)c1)c1ccc(F)c(S(=O)(=O)N2CCOCC(O)C2)c1 (racemic)
- half-life [1]: 4.63 h
- CC50 at 72 h [2]: 7.1 to 15 µM

Compound: O=C(Nc1cc(F)c(F)c(F)c1)c1ccc(F)c(S(=O)(=O)N2CCC(O)CC2)c1
- half-life [4]: 15 to 19 h
- Activity (Hepatitis B virus [5]): 1.7 log10IU/ml
- Kp [6]: 6
- logP [7]: 3.2

Compound: CN1CCN(S(=O)(=O)c2cc(C(=O)Nc3ccc(F)c(Cl)c3)ccc2F)CC(O)C1 (stereo not drawn)
- CC50 at 72 h [2]: 31 µM

Compound: O=C(Nc1ccc(F)c(Cl)c1)c1ccc(F)c(S(=O)(=O)N2CCCCC(CO)C2)c1 (stereo not drawn)
- CC50 at 72 h [2]: 3.1 µM

Compound: CC(O)C1CCCCN(S(=O)(=O)c2cc(C(=O)Nc3ccc(F)c(Cl)c3)ccc2F)C1 (stereo not drawn)
- CC50 at 72 h [2]: 2.6 µM

Compound: O=C(Nc1ccc(F)c(Cl)c1)c1ccc(F)c(S(=O)(=O)N2CCSCC(O)C2)c1 (stereo not drawn)
- CC50 at 72 h [2]: 19 µM

Compound: O=C(Nc1ccc(F)c(Cl)c1)c1ccc(F)c(S(=O)(=O)N2CCCCCCC2O)c1 (stereo not drawn)
- CC50 at 72 h [2]: 7 µM

Compound: CC1(O)CCCN(S(=O)(=O)c2cc(C(=O)Nc3ccc(F)c(Cl)c3)ccc2F)CC1 (stereo not drawn)
- CC50 at 72 h [2]: 11 µM

Compound: O=C(Nc1ccc(F)c(Cl)c1)c1ccc(F)c(S(=O)(=O)N2CCOCC(F)C2)c1 (stereo not drawn)
- CC50 at 72 h [2]: 15 µM

Compound: O=C(Nc1ccc(F)c(Cl)c1)c1ccc(F)c(S(=O)(=O)N2CCCC(O)CC2)c1 (stereo not drawn)
- CC50 at 72 h [2]: 29 µM

Compound: O=C(Nc1ccc(F)c(Cl)c1)c1ccc(F)c(S(=O)(=O)N2C[C@H](O)CC[C@H](O)C2)c1
- half-life [1]: 8.58 h
- AUC [8]: 55.4 µM·h
- AUC [9]: 0.73 µM·h
- half-life [10]: 3.72 h
- bioavailability [11]: 22%
- half-life [12]: 0.467 h
- half-life [13]: 3.2 h
- Vd [14]: 4.1 L/kg
- half-life [15]: 3.23 h
- clearance [16]: 6.4 mL/min/kg
- half-life [17]: 4.6 h
- Kp [6]: 76
- logP ([7]; read-out: logP): 2.9
- Vd [18]: 1.3 L/kg
- bioavailability [19]: 12%
- clearance [20]: 34 mL/min/kg

Compound: COC1COCCN(S(=O)(=O)c2cc(C(=O)Nc3ccc(F)c(Cl)c3)ccc2F)C1 (stereo not drawn)
- CC50 at 72 h [2]: 8.7 µM

Compound: O=C(Nc1ccc(F)c(Cl)c1)c1ccc(F)c(S(=O)(=O)N2CCCCCC(O)C2)c1 (stereo not drawn)
- half-life [1]: 0.267 h
- CC50 at 72 h [2]: 11 µM

Compound: O=C(Nc1ccc(F)c(Cl)c1)c1ccc(F)c(S(=O)(=O)N2CCOC[C@@H](O)C2)c1
- CC50 at 72 h [2]: 14 µM

Compound: O=C(Nc1ccc(F)c(Cl)c1)c1ccc(F)c(S(=O)(=O)N2CCCCC(F)(F)C2)c1
- CC50 at 72 h [2]: 11 µM

Compound: O=C(Nc1ccc(F)c(Cl)c1)c1ccc(F)c(S(=O)(=O)N2CCOC[C@H](O)C2)c1
- half-life [10]: 0.8 h
- bioavailability [11]: 53%
- clearance [21]: 88 mL/min/kg
- half-life [12]: 0.467 h
- Stability [22]: Stable
- half-life [13]: 2.6 h
- Vd [14]: 4.1 L/kg
- Ratio EC50 (Hepatitis B virus [23]): 6
- half-life [15]: 4.63 h
- CC50 at 72 h [2]: 19 µM
- clearance [16]: 5.4 mL/min/kg
- half-life [17]: 4.6 h
- half-life [24]: 0.6 h
- Kp [6]: 15
- logP ([7]; read-out: logP): 2.6
- Vd [18]: 1.3 L/kg
- Vd [25]: 3.3 L/kg
- bioavailability [19]: 78%
- clearance [20]: 28 mL/min/kg

Compound: O=C(Nc1ccc(F)c(Cl)c1)c1ccc(F)c(S(=O)(=O)N2CCCCC(O)C2)c1 (stereo not drawn)
- half-life [1]: 0.817 h
- CC50 at 72 h [2]: 15 µM
